From US6184396A, “Triazole derivative or salt thereof, preparation process thereof and pharmaceutical containing said compound as an effective ingredient” (SSP Co., Ltd., priority 1998, dated 2001)
Converted amounts (≈) assume the structure as drawn.

Key:
[1] = system: C. albicans ATCC 44859; assay: Test 1: Action against Candida albicans (in vitro); type: cell-based; conditions: ATCC44859, minimum concentration with apparent suppression of mycelial type growth vs medicament-free control, MEM medium + 10% fetal bovine serum, 37° C., 24 hours, CO2, read-out: Terminal point C. albicans
Protocol: Test 1: Action against Candida albicans (in vitro)
The resulting mixture was incubated at 37° C. for 24 hours in a CO2 gas incubator. After incubation, a morphological change of C. albicans was observed under an inverted microscope. The minimum medicament concentration permitting the apparent suppression of mycerial type growth compared with that of a medicament-free control was designated as a terminal point (ng/ml).

[2] = system: A. fumigatus IFM 40808; assay: Test 2: Action against Aspergillus fumigatus (in vitro); type: cell-based; conditions: IFM40808, 0.165M MOPS-containing RPMI 1640, pH 7, almar Blue, 35° C., 48 hours
Protocol: Test 2: Action against Aspergillus fumigatus (in vitro)
They were incubated at 35° C. for 48 hours.

[3] = system: C. albicans IFM 40009; assay: Test 3: Action against Candida albicans (in vivo); parameters: species or system C. albicans; mice (ICR (CRJ: CD-1), male, 4-week-old); conditions: mice infected i.v. with C. albicans, 1.25 mg/kg oral, 1 hour after inoculation then once a day for 4 days from 24 hours; for Surviving mice on Day 14, number of surviving mice/total number in group: control 0/11; for Average Survival days: control 4.5 days, *** p < 0.001 relative to control
Protocol: Test 3: Action against Candida albicans (in vivo)
After 4-week-old, male, ICR (CRJ: CD-1) mice were fasted for 6 hours, C. albicans IFM 40009 was inoculated to the tail vein of each of the mice to give an amount of 3.0×10^6 cells/mouse, whereby infection was caused. A control group consisted of 11 mice, while a medicament-administered group consisted of 5 mice. The medicament dissolved in 20% polyethylene glycol was orally administered 1 hour after the inoculation of the fungus and from 24 hours after the inoculation, it was administered once a day for 4 straight days, each in an amount of 1.25 mg/kg. The survival condition on Day 14 after the infection was compared. In addition, the survival days of the control group and the medicament-administered group were detected by the Kaplan-Meier method (Cox mantel test). Incidentally, Fluconazole was employed as a medicament for comparison.

MIC [1] [µg/mL]	MIC [2] [µg/mL]	Structure (SMILES)	Surviving mice on Day 14, number of surviving mice/total number in group [3]	Average Survival days [3] [days]
0.0313	8 (≈ 21.1 µM)	O=S(=O)(C1CC1)C(F)(F)C(O)(Cn1cncn1)c1ccc(F)cc1F (racemic) [Example 12, 1-(cyclopropylsulfonyl)-2-(2,4-difluorophenyl)-1,1-difluoro-3-(1H-1,2,4-triazol-1-yl)-2-propanol]	4/5	14.00
0.0156	2 (≈ 5.27 µM)	O=S(=O)(C1CC1)C(F)(F)C(O)(Cn1cncn1)c1ccc(F)cc1F (single isomer, unassigned; (-)) [Example 17(2), (-)-1-(Cyclopropylsulfonyl)-2-(2,4-difluorophenyl)-1,1-difluoro-3-(1H-1,2,4-triazol-1-yl)-2-propanol]		
0.0078	2 (≈ 5.76 µM)	OC(Cn1cncn1)(c1ccc(F)cc1F)C(F)(F)SC1CC1 (stereo not drawn) [Example 7, 1-(cyclopropylthio)-2-(2,4-difluorophenyl)-1,1-difluoro-3-(1H-1,2,4-triazol-1-yl)-2-propanol]		
0.0156	8 (≈ 24.3 µM)	OC(Cn1cncn1)(c1ccc(F)cc1)C(F)(F)SC1CC1 (stereo not drawn) [Example 8, 1-(cyclopropylthio)-1,1-difluoro-2-(4-fluorophenyl)-3-(1H-1,2,4-triazol-1-yl)-2-propanol]		
0.0313	32 (≈ 88.6 µM)	COC(Cn1cncn1)(c1ccc(F)cc1F)C(F)(F)SC1CC1 (stereo not drawn) [Example 10, 1-[3-(cyclopropylthio)-2-(2,4-difluorophenyl)-3,3-difluoro-2-methoxypropyl]-1H-1,2,4-triazole]		
		COC(Cn1cncn1)(c1ccc(F)cc1F)C(F)(F)S(=O)(=O)C1CC1 (stereo not drawn) [Example 15, 1-[3-(cyclopropylsulfonyl)-2-(2,4-difluorophenyl)-3,3-difluoro-2-methoxypropyl]-1H-1,2,4-triazole]	4/5	13.4

Structure (SMILES)	MIC [1] [µg/mL]	MIC [2] [µg/mL]	Surviving mice on Day 14, number of surviving mice/total number in group [3]	Average Survival days [3] [days]
OC(Cn1cncn1)(Cn1cncn1)c1ccc(F)cc1F [Fluconazole, reference compound]	0.25	> 128	1/5	11.0
